Molecules are shown by their SMILES. Activity calls are given as the source filed them. How the calls were made is not given here.

In general, Kd refers to the equilibrium constant for the complex coming apart.

This assay deals with Peptidyl-prolyl cis-trans isomerase FKBP1A (Homo sapiens) (UniProt P62942). Kind of assay: FKBP12 binders, biophysical, NMR detection (AID 608). The following applies: NMR binding, purified FKBP12.
Chain of Peptidyl-prolyl cis-trans isomerase FKBP1A (Homo sapiens) (P62942 whole entry, looked up): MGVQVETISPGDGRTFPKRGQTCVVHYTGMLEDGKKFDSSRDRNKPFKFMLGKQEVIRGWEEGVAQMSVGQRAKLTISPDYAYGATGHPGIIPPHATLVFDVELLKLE
Consider `O=c1cc(O)nc(SCc2ccccc2)[nH]1`, for which the Kd is > 4 mM (inactive).

In the case of `CS(C)=C1C(=O)NC(=O)N(c2ccccc2)C1=O`, the Kd is > 4 mM (inactive).

Take `O=C(O)c1ccccc1C(=O)Nc1ccccc1`: the Kd is > 4 mM (inactive). The result for `CNC(=O)c1cc(C)c(-c2ccccc2)s1` reads > 4 mM (inactive).

On to `N#Cc1ccccc1Cn1c(-c2cscn2)nc2ccccc21`, for which the Kd entry is “inactive”. The result for `Nc1ccc(-c2cn3c(n2)SCC3)cc1` reads > 4 mM (inactive); that for `COc1ccc(C(=O)O)cc1OC`, > 4 mM (inactive).

On to `Cc1ccc(/C=N/NC(N)=O)o1`, for which the Kd was > 4 mM (inactive). Regarding `CCC(C)C(=O)O[C@@H]1C[C@@]2(C)[C@H](c3ccoc3)OC(=O)CC23OC2(C)OC34[C@H](OC(=O)C(C)C)[C@@]3(O)[C@@H](OC(=O)C5(C)OC5C)[C@@]5(C)C[C@]3(O)[C@@](C)([C@H]5CC(=O)OC)C14O2` (stereo partly specified), the Kd is > 4 mM (inactive).

With `O=C1CCC(C(=O)NCc2cccnc2)N1` (stereo unspecified), the Kd was > 4 mM (inactive). The result for `Cc1cc(NC(=O)NCCCSc2nncn2C)no1` reads > 4 mM (inactive); that for `O=C(NN1CCOCC1)c1ccccc1F`, > 4 mM (inactive). The result for `CN1C(=O)c2ccc(N=C3NC(=O)CS3)cc2C1=O` reads > 4 mM (inactive).

For `c1ccc2nc3c(nc2c1)CCc1nonc1-3`, the Kd is > 4 mM (inactive). The result for `CSc1ccn(CCC(=O)O)c(=O)n1` reads > 4 mM (inactive). The result for `O=C1CCCC(=O)N1c1ccc(O)cc1` reads > 4 mM (inactive); that for `COC(=O)C[C@@H]1C2(C)C(=O)[C@@H](CC3=C4CC(=O)O[C@@H](c5ccoc5)[C@]4(C)CCC32)[C@H](OC(C)=O)C1(C)C` (stereo partly specified), > 4 mM (inactive). The result for `COC(=O)c1[nH]c2ccccc2c1C(=O)OC` reads > 4 mM (inactive); that for `C/C=C(/C)C(=O)O[C@@H]1Cc2c(ccc3ccc(=O)oc23)OC1(C)C`, > 4 mM (inactive); that for `N=Cc1c(O)n(-c2cccc(Cl)c2)c(=O)[nH]c1=O`, > 4 mM (inactive).

With `OCC1Cc2ccccc2CN1` (stereo unspecified), the Kd is > 4 mM (inactive). As for `Cc1nnc(SCC(=O)N2CCCCC2)s1`, the Kd was > 4 mM (inactive).

On to `COc1cccc(C(=O)Nc2c(C)n[nH]c2C)c1`, for which the Kd is > 4 mM (inactive). As to `O=C(O)c1cccc(-n2cccc2)c1`, the Kd was > 4 mM (inactive). `O=C(O)CSCc1ccc(Cl)cc1`: the Kd is > 4 mM (inactive). For `COc1ccc2cc1Oc1ccc(cc1)C[C@H]1c3cc(c(OC)cc3CCN1C)Oc1c(OC)c(OC)cc3c1[C@H](C2)N(C)CC3`, the Kd is > 4 mM (inactive).

In the case of `Cn1cnc2c(cnn2-c2ccccc2)c1=O`, the Kd is > 4 mM (inactive). For the molecule `COc1cccc(/C=N/N=C2/NC(=O)CS2)c1`, the Kd was > 4 mM (inactive). Turning to `CC(=O)Nc1cc2c(cc1C(=O)C(C)C)OCCO2`, the Kd was > 4 mM (inactive). The result for `O=C(O)CC1Sc2ccccc2NC1=O` (stereo unspecified) reads > 4 mM (inactive); that for `Nc1ncnc2c1ncn2CCN1CCCCC1`, > 4 mM (inactive); that for `Cc1nc2nc(-c3ccco3)nn2c(C)c1Cl`, > 4 mM (inactive). For the molecule `CCN1C(=O)N(CO)C2C1N(C)C(=O)N2C` (stereo unspecified), the Kd was > 4 mM (inactive).

Turning to `CCN(CC)c1nc2n(c(=O)n1)CCO2`, the Kd is > 4 mM (inactive). The result for `Cc1nc(N2CCOCC2)[nH]c(=O)c1C` reads > 4 mM (inactive); that for `COc1cc2[nH]c(=S)n(C)c(=O)c2cc1OC`, > 4 mM (inactive). The result for `CN1CCCCC1c1ccc(-c2cccnc2)nc1` (stereo unspecified) reads > 4 mM (inactive); that for `Cc1ccc2cc(CO)ccc2n1`, > 4 mM (inactive); that for `Cc1nc(-c2cc(CO)no2)cs1`, > 4 mM (inactive). Regarding `COC[C@]12CN(C=O)C3[C@@H]4[C@H](OC)C1[C@]3(C1CC3(O)C(OC)C(O)C4(OC(C)=O)C1C3OC(=O)c1ccccc1)[C@@H](OC)C[C@H]2O` (stereo partly specified), the Kd is > 4 mM (inactive). The result for `CN1CN(Cc2ccccc2)CN/C1=N/[N+](=O)[O-]` reads > 4 mM (inactive); that for `O=c1[nH]c(NCCO)nnc1Cc1ccccc1`, > 4 mM (inactive).

Take `O=C(CSc1ncn[nH]1)c1ccc2c(c1)OCCO2`: the Kd was > 4 mM (inactive). On to `c1ccn(Cc2ccncc2)c1`, for which the Kd was > 4 mM (inactive). The result for `Cn1c(SCC(=O)NCCO)nc2ccccc2c1=O` reads > 4 mM (inactive); that for `O=C(OCc1c(Cl)cccc1Cl)c1cnccn1`, > 4 mM (inactive); that for `CN1CCOc2cc(C(=O)O)ccc21`, > 4 mM (inactive). On to `CC(=O)OCC[C@H](C)CCC=C(C)C`, for which the Kd is > 4 mM (inactive).

`CC(C)C(=O)NC(=S)N1CCOCC1`: the Kd is > 4 mM (inactive). Take `NCc1ccc2c(c1)OCCO2`: the Kd was > 4 mM (inactive). The result for `COc1ccc(S(=O)(=O)N2CCOCC2)cc1C(C)C` reads > 4 mM (inactive); that for `C=C1[C@H]2CC[C@@]3(C)[C@H](c4ccoc4)OC(=O)C[C@]13O[C@H]1C[C@H](O)C(C)(C)[C@H](CC(=O)OC)[C@]12C`, > 4 mM (inactive). The result for `OC1CCC(C(F)(F)F)CC1` (stereo unspecified) reads > 4 mM (inactive). The result for `CC(=O)OC1CCC23CC1(C)CCC2C(C)(C)CC3OC(C)=O` (stereo unspecified) reads > 4 mM (inactive). Regarding `O=c1[nH]cc(S(=O)(=O)Nc2ccccc2)c(=O)[nH]1`, the Kd is > 4 mM (inactive). The result for `Cc1cc(C(=O)Nc2sc3c(c2C#N)CCC3)no1` reads > 4 mM (inactive); that for `O=C(O)c1ccc2ccccc2n1`, > 4 mM (inactive). The result for `CC(=O)c1cnc(Nc2nc(C)c3ccccc3n2)nc1C` reads > 4 mM (inactive); that for `CN1CCN(C(=S)NC(=O)c2ccn(C)n2)CC1`, > 4 mM (inactive); that for `Cc1cc(C)n2nc(C(=O)NCc3ccco3)nc2n1`, > 4 mM (inactive). The result for `O=C1CSC(=Nc2ccccc2[N+](=O)[O-])N1` reads > 4 mM (inactive). Turning to `O=C1CN(C(=O)c2ccccc2)c2ccccc2N1`, the Kd was > 4 mM (inactive).

In the case of `Cc1cc(/C=N/O)nc(=O)[nH]1`, the Kd was > 4 mM (inactive). On to `O=C(O)Cc1csc(-c2ccccc2)n1`, for which the Kd was > 4 mM (inactive). The result for `CC(=O)O[C@H]1CC[C@@]2(C)C(=CC(=O)C3C4CCC(C(C)CCCC(C)C)[C@@]4(C)CCC32)C1` (stereo partly specified) reads > 4 mM (inactive); that for `Cc1cc(=O)oc2cc(O)c(O)cc12`, > 4 mM (inactive). The result for `Cc1cc(C(=O)N2CCCCCC2)cs1` reads > 4 mM (inactive); that for `COc1ccc(/C=C2/C(=O)N=C(N)N2C)cc1OC`, > 4 mM (inactive). Take `CN1CCN(c2cc(=O)n(C)c(=O)[nH]2)CC1`: the Kd is > 4 mM (inactive). The result for `COc1c2c(cc3occ(-c4ccc5c(c4)OCO5)c(=O)c13)OC(C)(C)C=C2` reads > 4 mM (inactive). The result for `C[C@]12C=CC(=O)C=C1CCC1C2CC[C@]2(C)C(=O)CCC12` (stereo partly specified) reads > 4 mM (inactive).

The record behind these values is PubChem BioAssay AID608 (Sanford-Burnham Center for Chemical Genomics, 2007).
